The values that follow come from BindingDB's records for doi:10.1021/acsmedchemlett.0c00107 (Usona Institute, 2020).

The target in the assay is T1, Estrogen receptor (Homo sapiens, UniProt P03372).
T1 sequence (P03372 whole entry): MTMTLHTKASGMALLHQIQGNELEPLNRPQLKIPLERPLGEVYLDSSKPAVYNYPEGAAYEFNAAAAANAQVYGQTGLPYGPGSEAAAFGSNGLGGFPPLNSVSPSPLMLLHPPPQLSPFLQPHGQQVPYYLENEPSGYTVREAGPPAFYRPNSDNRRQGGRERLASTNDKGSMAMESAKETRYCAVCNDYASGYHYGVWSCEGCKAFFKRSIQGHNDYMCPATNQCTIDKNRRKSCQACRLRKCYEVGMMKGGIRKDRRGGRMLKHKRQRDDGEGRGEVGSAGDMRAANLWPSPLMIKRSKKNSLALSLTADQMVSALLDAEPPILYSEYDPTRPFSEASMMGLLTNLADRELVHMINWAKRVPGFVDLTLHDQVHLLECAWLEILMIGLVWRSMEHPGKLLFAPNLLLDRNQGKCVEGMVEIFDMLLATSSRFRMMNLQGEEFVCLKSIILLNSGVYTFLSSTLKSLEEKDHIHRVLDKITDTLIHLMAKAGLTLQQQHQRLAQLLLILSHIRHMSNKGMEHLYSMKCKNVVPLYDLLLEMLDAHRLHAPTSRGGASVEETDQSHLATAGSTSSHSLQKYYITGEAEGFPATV
Kind of assay: Induction of ERalpha protein degradation in human MCF7 cells assessed as reduction in ERalpha protein levels incubated for 24 hrs by In-cell western assay. To be noted: read-out: IC50 (the source's name).

For the compound `O=C(NCCCCOc1ccc(C(=C2C3CC4CC(C3)CC2C4)c2ccc(O)cc2)cc1)[C@H]1C[C@@H]2C=C[C@H]1C2`, the DC50 was 0.5 nM.
The same measure for `CC(C)(C)OC(=O)N[C@@H](Cc1c[nH]c2ccccc12)C(=O)NCCCCOc1ccc(C(=C2C3CC4CC(C3)CC2C4)c2ccc(O)cc2)cc1`: 0.5 nM; for `O=C(NCCCCOc1ccc(C(=C2C3CC4CC(C3)CC2C4)c2ccc(O)cc2)cc1)[C@H]1CC[C@H](C(F)(F)F)CC1`: 2 nM.
